Results: US20110154529A1, “INDUCED CHROMOSOME DOUBLING IN PLANTS” (DOW AGROSCIENCES LLC, priority 2009, published 2011)
Where two headings read alike, the source gives them in different places.

Assays:
[1] = test system: germinated haploid maize seedlings in soil; experiment: Chromosome doubling by foliar spray treatment at V1-V3 stage; type: in vivo
Description: Haploid maize seeds were planted in Sun Gro MetroMix® 306 planting mixture, which typically has a pH of 6.0 to 6.8 and an organic matter content of about 30 percent, in 72-well, plastic propagation flats (Dillen Products; Middlefield Ohio). When required to ensure good germination and healthy plants, a fungicide treatment and/or other chemical or physical treatment was applied. The plants were grown in a greenhouse with an approximate 15 hour photoperiod which was maintained at about 23-29° C. during the day and 22-28° C. during the night until they reached the V1-V3 growth stage. Nutrients and water were added on a regular basis and supplemental lighting was provided with overhead metal halide 1000-Watt lamps as necessary.
A weighed amount of compound 1, determined by the rate to be tested, was dissolved in 1.2 mL of dimethyl sulfoxide (DMSO) to obtain concentrated stock solutions. […] The concentrated stock solutions obtained were diluted with 10.8 mL of an aqueous mixture containing 1.25% v/v (volume/volume) Agri-dex Crop Oil Concentrate. Compound requirements are based upon a 12 mL application volume at a rate of 187 L/ha. Formulated compounds were applied to the plant material with an overhead Mandel track sprayer equipped with a 8002E nozzle calibrated to deliver 187 L/ha over an application area of 0.503 square meters at a spray height of 18 inches (43 cm) above the average plant canopy height. Control plants were sprayed in the same manner with the solvent blank.
The treated plants and control plants were placed in a greenhouse as described above and watered by sub-irrigation to prevent wash-off of the test compounds. Approximately 14 days after treatment, the treated plants were transplanted to individual pots containing Sun Gro MetroMix® 306. Plants that produced tassels and silk were then self-pollinated to obtain dihaploid seed.
Table 3 illustrates the results of doubling rate after spray treatment with the chemicals of interest. […] The spray treated plant tassels and silks were synchronized well and the plants shed more pollen.

[2] = test system: haploid germinated maize seedlings
Description: An exemplary cycloalkene, 1,2,3-Trimethoxy-4-((1S,6R)-6-nitro-cyclohex-3-enyl)-benzene, designated as compound 1 was used to determine double haploid efficiency, doubling rate by a coleoptile tip cutting, seedling soaking method. […] Data provided in Tables 1, 2 and 3 were generated using haploid seeds obtained through cross pollination of a maize line of interest with an inducer maize line.
The resulting maize seeds were sorted based on marker gene color.
Coleoptile tips in maize seedlings were cut and the seedlings were soaked in various chromosome doubling agents as shown in Table 1. Haploid maize seeds were germinated and the coleoptile tips were excised (1-2 mm). Seedlings that survived were transplanted and grown until tassels and silk formed. Plants that produced tassels and silk were self-pollinated. Seeds produced form the self-pollination were visually assessed for the marker to identify them as double haploid (dihaploid).

rat = details: cited from earlier work
haploid maize seedlings = experiment: Chromosome doubling by seedling soaking, plants transplanted into the field; type: in vivo
Description: The procedure listed in example 1 was utilized to treat maize seedlings that were subsequently transplanted into the field. Seedlings that survived the transplanting were grown to maturity. Plants that produced tassels and silk were self-pollinated. […] For the cycloalkene treatment, 25 μM and 100 μM concentrations of compound 1 was used.

rabbit = experiment: Eye irritation; type: in vivo; details: dose of about 100 mg/animal
rats = experiment: Dermal toxicity on rats; type: in vivo, rat; details: rats at 200 mg/kg
[3] = Acute mammalian toxicity LD50 (rat); details: in vivo
[4] = seedling soak, rate 5 μM, TP = transplanted
[5] = seedling soak, rate 25 μM, TP = transplanted
[6] = seedling soak, rate 125 μM, TP = transplanted
[7] = seedling soak, rate cell empty in table, colchicine at 0.06% w/v

SMILES: CC(C)OC(=O)Nc1cccc(Cl)c1 [Chlorpropham, chlorpropham]
- # plants dead after treatment ([1]; spray, rate 70 g ai/ha): 0
- # plants w/ pollen and silk ([1]; spray, rate 70 g ai/ha): 9
- % DR (doubling rate) ([1]; spray, rate 70 g ai/ha): 40.9%
- # plants dead after treatment ([1]; spray, rate 280 g ai/ha): 1
- # plants w/ pollen and silk ([1]; spray, rate 280 g ai/ha): 18
- % DR (doubling rate) ([1]; spray, rate 280 g ai/ha): 58.1%
- % DR (doubling rate: No. plants with pollen and silk/No. of plants left * 100) ([2]; seedling soak, rate 5 μM): 45.5%
- No. plants alive ([2]; seedling soak, rate 5 μM): 16
- No. plants dead ([2]; seedling soak, rate 5 μM): 48
- No. plants with pollen & silks ([2]; seedling soak, rate 5 μM): 5
- No. plants dead after TP [2, 4]: 0
- No. plants alive ([2]; seedling soak, rate 25 μM): 1
- No. plants dead ([2]; seedling soak, rate 25 μM): 63
- No. plants dead after TP [2, 5]: 0
- No. plants alive ([2]; seedling soak, rate 125 μM): 0
- No. plants dead ([2]; seedling soak, rate 125 μM): 64
- No. plants dead after TP [2, 6]: 0

SMILES: COc1cc2c(c(OC)c1OC)-c1ccc(OC)c(=O)cc1[C@@H](NC(C)=O)CC2 [Colchicine, colchicine]
- oral LD50 (rat) (rat): 5.89 mg/kg
- % haploid maize plants pollinated (doubling rate) (haploid maize seedlings; 0.06% colchicine): 55.68%
- plants that had doubled haploid ears (haploid maize seedlings; 0.06% w/v colchicine, of about 49 haploid plants pollinated): about 38
- mortality rate ([2]; seedling soak, colchicine treatment at 0.06% w/v): 41.5%
- % DR (doubling rate: No. plants with pollen and silk/No. of plants left * 100) [2, 7]: 53.3%
- No. plants alive [2, 7]: 38
- No. plants dead [2, 7]: 27
- No. plants dead after TP [2, 7]: 0
- No. plants with pollen & silks [2, 7]: 16

SMILES: COc1ccc([C@@H]2CC=CC[C@H]2[N+](=O)[O-])c(OC)c1OC [Compound 1, 1,2,3-Trimethoxy-4-((1S,6R)-6-nitro-cyclohex-3-enyl)-benzene]
- # plants dead after treatment ([1]; maize, in vivo): 0
- # plants w/ pollen and silk ([1]; spray, rate 70 g ai/ha): 6
- % DR (doubling rate) ([1]; spray, rate 70 g ai/ha): 31.2%
- # plants w/ pollen and silk ([1]; spray, rate 280 g ai/ha): 12
- % DR (doubling rate) ([1]; spray, rate 280 g ai/ha): 46.2%
- Eye irritation: time to resolution of corneal and iridal effects (rabbit): ≤ 48 h
- Eye irritation: animals with corneal and iridal effects (rabbit; at 24 hours): 1 of 3 animals showed corneal and iridal effects
- dermal toxicity (rats): No dermal toxicity was observed
- % DH pollination success (haploid maize seedlings; 25 μM): 90%
- % haploid maize plants pollinated (doubling rate) (haploid maize seedlings; 25 μM): 67.79%
- plants that had doubled haploid ears (haploid maize seedlings; 25 μM, out of 40 pollinated maize haploid plants): 36
- % DH pollination success (haploid maize seedlings; 100 μM): 62.5%
- % haploid maize plants pollinated (doubling rate) (haploid maize seedlings; 100 μM): 51.06%
- plants that had doubled haploid ears (haploid maize seedlings; 100 μM, out of 24 pollinated haploid maize plants): 15
- No. plants alive ([2]; maize, in vivo, 5 μM): 56
- No. plants dead ([2]; maize, in vivo, 5 μM): 10
- No. plants dead after TP ([2]; maize, in vivo, 5 μM): 2
- No. plants alive ([2]; maize, in vivo, 25 μM): 46
- No. plants dead ([2]; maize, in vivo, 25 μM): 20
- No. plants dead after TP ([2]; maize, in vivo, 25 μM): 2
- No. plants alive ([2]; maize, in vivo, 125 μM): 29
- No. plants dead ([2]; maize, in vivo, 125 μM): 34
- No. plants dead after TP ([2]; maize, in vivo, 125 μM): 2
- mortality rate ([2]; seedling soak, 5 μM (10/66*100)): 15.1%
- mortality rate ([2]; seedling soak, 25 μM): 30.3%
- % DR (doubling rate: No. plants with pollen and silk/No. of plants left * 100) ([2]; seedling soak, rate 5 μM): 53.3%
- No. plants with pollen & silks ([2]; seedling soak, rate 5 μM): 24
- % DR (doubling rate: No. plants with pollen and silk/No. of plants left * 100) ([2]; seedling soak, rate 5 μM, listed as compound 1): about 53%
- % DR (doubling rate: No. plants with pollen and silk/No. of plants left * 100) ([2]; seedling soak, rate 25 μM): 62.5%
- No. plants with pollen & silks ([2]; seedling soak, rate 25 μM): 20
- % DR (doubling rate: No. plants with pollen and silk/No. of plants left * 100) ([2]; seedling soak, rate 125 μM): 76.5%
- No. plants with pollen & silks ([2]; seedling soak, rate 125 μM): 13
- LD50 [3]: ≥ 500 mg/kg

SMILES: C#CC(C)(C)NC(=O)c1cc(Cl)cc(Cl)c1 [Pronamide, pronamide]
- # plants dead after treatment ([1]; spray, rate 35 g ai/ha): 0
- # plants w/ pollen and silk ([1]; spray, rate 35 g ai/ha): 5
- % DR (doubling rate) ([1]; spray, rate 35 g ai/ha): 27.8%
- # plants dead after treatment ([1]; spray, rate 140 g ai/ha): 0
- # plants w/ pollen and silk ([1]; spray, rate 140 g ai/ha): 3
- % DR (doubling rate) ([1]; spray, rate 140 g ai/ha): 16.7%
- % DR (doubling rate: No. plants with pollen and silk/No. of plants left * 100) ([2]; seedling soak, rate 5 μM): 44.5%
- No. plants alive ([2]; seedling soak, rate 5 μM): 41
- No. plants dead ([2]; seedling soak, rate 5 μM): 23
- No. plants with pollen & silks ([2]; seedling soak, rate 5 μM): 12
- No. plants dead after TP [2, 4]: 3
- No. plants alive ([2]; seedling soak, rate 25 μM): 13
- No. plants dead ([2]; seedling soak, rate 25 μM): 51
- No. plants with pollen & silks ([2]; seedling soak, rate 25 μM): 2
- No. plants dead after TP [2, 5]: 1
- No. plants alive ([2]; seedling soak, rate 125 μM): 2
- No. plants dead ([2]; seedling soak, rate 125 μM): 62
- No. plants dead after TP [2, 6]: 0
